Legend:
E. coli DNA gyrase [1] = target: T1, E. coli DNA gyrase (Escherichia coli (strain K12), UniProt P0AES4+P0AES6); assay: biochemical; type: biochemical
E. coli DNA gyrase [2] = target: T1, E. coli DNA gyrase; assay: Agarose gel-based DNA gyrase inhibition assay; type: biochemical
Protocol: 100 ng of DNA gyrase was used to supercoil the rx pAB1 in the presence of different concentrations of a gyrase inhibitor. […] Samples were analyzed by electrophoresis in 1% w/v agarose gels followed by ethidium bromide staining and photographed under UV light.

[3] = IC50 (50-200 µM), bin of Table 2
[4] = IC50 ([…]-50 µM), bin of Table 2
[5] = IC50 against E. coli DNA gyrase
[6] = IC50 (15-[…] µM), bin of Table 2

Compound | IC50 (E. coli DNA gyrase [1]; [3]) [µM] | inhibition of E. coli DNA gyrase activities (E. coli DNA gyrase [2]; 50 µM of compounds) | inhibition of E. coli DNA gyrase activities (E. coli DNA gyrase [2]; 200 µM of compounds) | other results
N#Cc1sc2nc(-c3ccccc3)cc(-c3ccco3)c2c1N [Compound 167] | 50 to 200 | potently inhibited | – | –
CN(C)c1ccc(/C=C2/C(=O)N(CCc3ccc(F)cc3)C(=O)N=C2O)cc1 [Compound 38] | 50 to 200 | – | completely inhibited | –
CC(=O)NC1=NC(=O)/C(=C/c2cc(C)n(-c3cccc(C(=O)O)c3)c2C)S1 [Compound 31] | 50 to 200 | – | completely inhibited | –
O=C1c2ccccc2C(=O)c2c1ccc(O)c2O [Compound 256, Alizarin] | – | – | completely inhibited | IC50 (E. coli DNA gyrase [1]; [4]): 25 to 50 µM; IC50 (E. coli DNA gyrase [1]; [5]): < 10 µM
Cc1cc(C(=O)Nc2ccccc2C(=O)O)ccc1NC(=O)COc1ccccc1Cl [Compound 65] | 50 to 200 | – | almost completely inhibited | –
CCOC(=O)c1cc(-c2ccc(N3CCOCC3)cc2)nn1-c1ccccc1C(=O)O [Compound 7] | – | completely inhibited | completely inhibited | IC50 (E. coli DNA gyrase [1]; [4]): 25 to 50 µM
Cc1cc(-c2csc(N)n2)c(C)n1-c1ccccc1.Cl [Compound 70] | 50 to 200 | – | completely inhibited | –
Cc1ccc(/N=C2N=C(O)/C(=C/C=C/c3ccco3)S\2)cc1C [Compound 169] | – | completely inhibited | – | IC50 (E. coli DNA gyrase [1]; [6]): 15 to 25 µM
O=C1/C(=C\c2ccc(O)cc2)SC(=S)N1/N=C/c1ccc(O)cc1 [Compound 35] | – | completely inhibited | completely inhibited | IC50 (E. coli DNA gyrase [1]; [4]): 25 to 50 µM
Cc1cc(O)c2c(c1)C(=O)c1cc(O)cc(O)c1C2=O [Compound 242, Emodin] | 50 to 200 | – | completely inhibited | inhibition of E. coli DNA gyrase activities (E. coli DNA gyrase [1]): potently inhibited
O=C1OC2(c3ccccc31)c1cc(I)c(O)c(I)c1Oc1c2cc(I)c(O)c1I [Compound 253, Erythrosin B] | – | – | completely inhibited | IC50 (E. coli DNA gyrase [1]; [5]): < 10 µM
Cc1ccc([S+]([O-])c2ccc([N+](=O)[O-])c3nonc23)cc1 (stereo not drawn) [Compound 222] | – | completely inhibited | completely inhibited | IC50 (E. coli DNA gyrase [1]; [4]): 25 to 50 µM
O=C1C(Cl)=C(NCCc2ccccc2)C(=O)c2ccccc21 [Compound 205] | 50 to 200 | – | potently inhibited | –
O=C(Cc1ccccc1)c1ccccn1 [Compound 213] | 50 to 200 | – | completely inhibited | –
Cc1onc(-c2ccccc2)c1C(=O)Nc1sccc1C#N [Compound 112] | 50 to 200 | potently inhibited | – | –
COC1C(C)OC(OC2CC(C)(O)Cc3cc4c(c(O)c32)C(=O)c2c(O)cc3c(c2C4=O)OC2OC3(C)C(O)C(N(C)C)C2O)C(OC)C1(C)OC (stereo not drawn) [Compound 224] | – | completely inhibited | completely inhibited | IC50 (E. coli DNA gyrase [1]; [4]): 25 to 50 µM
O=C(NN1C(=O)/C(=C\C=C\c2ccco2)SC1=S)c1ccccc1O [Compound 180] | – | completely inhibited | – | IC50 (E. coli DNA gyrase [1]; [6]): 15 to 25 µM
Cc1cc(/C=C2\SC(=S)N=C2O)c(C)n1-c1ccccc1 [Compound 29] | – | completely inhibited | completely inhibited | IC50 (E. coli DNA gyrase [1]; [4]): 25 to 50 µM
Cc1n[nH]c(SC(Cc2ccc(-c3cccc(Cl)c3)o2)C(=O)O)n1 (stereo not drawn) [Compound 18] | – | completely inhibited | completely inhibited | IC50 (E. coli DNA gyrase [1]; [4]): 25 to 50 µM

Compound | IC50 (E. coli DNA gyrase [1]; [3]) [µM] | inhibition of E. coli DNA gyrase activities (E. coli DNA gyrase [2]; 50 µM of compounds) | inhibition of E. coli DNA gyrase activities (E. coli DNA gyrase [2]; 200 µM of compounds) | other results
CCN(CCCNc1cc2c(c(N)c1S(=O)(=O)O)C(=O)c1ccccc1C2=O)c1ccccc1 [Compound 215] | – | completely inhibited | completely inhibited | IC50 (E. coli DNA gyrase [1]; [4]): 25 to 50 µM
O=C(O)C1Nc2ccccc2C2C=CCC12 (stereo not drawn) [Compound 83] | 50 to 200 | almost completely inhibited | completely inhibited | inhibition of E. coli DNA gyrase activities (E. coli DNA gyrase [1]): inhibit E. coli DNA gyrase strongly
O=C1/C(=C/c2ccc(O)cc2)SC(=S)N1Cc1cccnc1 [Compound 168] | 50 to 200 | potently inhibited | – | –
CCc1ccc(OCC(=O)/N=c2/[nH]nc(-c3ccco3)s2)cc1 [Compound 22] | 50 to 200 | – | completely inhibited | –
CCOC(=O)C1=C(C)NC(=O)NC1c1ccc(N2CCC(c3ccccc3)=N2)cc1 (stereo not drawn) [Compound 68] | 50 to 200 | – | almost completely inhibited | –
O=C(O)c1cc(N2N=C(C(F)(F)F)/C(=C/C=C/c3ccco3)C2=O)ccc1Cl [Compound 49] | – | almost completely inhibited | completely inhibited | IC50 (E. coli DNA gyrase [1]; [4]): 25 to 50 µM
COC(=O)C1C2CC3c4[nH]c5cc(OC)ccc5c4CCN3CC2CC(OC(=O)c2ccc(N)cc2)C1OC (stereo not drawn) [Compound 204] | 50 to 200 | – | potently inhibited | –
CC(C)(C)N1C(=O)N=C(O)/C(=C\c2ccc3c(c2)CCN3CCCCl)C1=O [Compound 23] | – | completely inhibited | completely inhibited | IC50 (E. coli DNA gyrase [1]; [4]): 25 to 50 µM
O=C1NC(=S)S/C1=C/c1ccc(OC(=O)c2ccco2)cc1 [Compound 51] | 50 to 200 | – | almost completely inhibited | –
c1ccc(Nc2nc(N3CCCC3)c3ccccc3n2)cc1 [Compound 102] | – | completely inhibited | – | IC50 (E. coli DNA gyrase [1]; [4]): 25 to 50 µM
Cc1ccc(/C=C2\SC(N3CCN(C(c4ccccc4)c4ccccc4)CC3)=NC2=O)o1 [Compound 33] | 50 to 200 | – | completely inhibited | –
Cc1cc(/C=C2/SC(=S)N(c3cccc(Cl)c3)C2=O)c(C)n1-c1cccnc1 [Compound 171] | – | completely inhibited | – | IC50 (E. coli DNA gyrase [1]; [6]): 15 to 25 µM
O=C(O)CC(C(=O)O)N1C(=O)/C(=C/c2ccc(-c3nc4ccccc4s3)o2)SC1=S (stereo not drawn) [Compound 62] | 50 to 200 | almost completely inhibited | completely inhibited | –
N#CC(C#N)=C1C=CC=CN1C(=Cc1ccccc1)C(=O)c1cccs1 [Compound 131] | 50 to 200 | potently inhibited | – | –
C(=Cc1ccco1)c1nc2ccccc2[nH]1 [Compound 129] | 50 to 200 | potently inhibited | – | –
CCOc1ccc(S(=O)(=O)Nc2nc3ccccc3nc2Nc2ccc(N3CCOCC3)cc2)cc1 [Compound 130] | 50 to 200 | potently inhibited | – | –
CN(C)c1ccc(C=C2SC(=S)N(Cc3ccco3)C2=O)cc1 [Compound 228] | 50 to 200 | – | potently inhibited | –
O=C(NCc1cccnc1)c1ccc(-c2cccc(Cl)c2Cl)o1 [Compound 56] | 50 to 200 | – | almost completely inhibited | –
COc1ccc(-c2cc(-c3ccco3)nc(O)c2C#N)cc1OC [Compound 28] | 50 to 200 | – | almost completely inhibited | –

From patent US20230364057A1, “BACTERIAL DNA GYRASE INHIBITORS AND METHODS OF USE THEREOF” (THE FLORIDA INTERNATIONAL UNIVERSITY BOARD OF TRUSTEES, priority 2022, published 2023)
